According to ChEMBL document CHEMBL5244223, “l,8-Naphthalimide based DNA intercalators and anticancer agents. A systematic review from 2007 to 2017” (Eur J Med Chem, 2018):

How the values were obtained:
HCT-116 [1] = assay: Cytotoxicity against human HCT-116 cells assessed as inhibition of cell growth incubated for 72 hrs by MTT assay; type: functional, cell-based; conditions: HCT-116, 72 h
Jurkat = assay: Antiproliferative activity against human Jurkat cells assessed as inhibition of cell proliferation incubated for 72 hrs by MTT assay; type: functional, cell-based
L02 = assay: Antiproliferative activity against human HL7702 cells assessed as inhibition of cell proliferation incubated for 24 hrs by MTT assay; type: functional, cell-based; conditions: L02, 24 h
MCF7 [2] = assay: Antiproliferative activity against human MCF7 cells assessed as inhibition of cell proliferation incubated for 24 hrs by MTT assay; type: functional, cell-based; conditions: MCF7, 24 h
BGC-823 = assay: Antiproliferative activity against human BGC-823 cells assessed as inhibition of cell proliferation incubated for 24 hrs by MTT assay; type: functional, cell-based; conditions: BGC-823, 24 h
HCT-15 = assay: Cytotoxicity against human HCT-15 cells assessed as inhibition of cell growth incubated for 24 hrs by sulforhodamine B assay; type: functional, cell-based; conditions: HCT-15, 24 h
Clupea harengus = assay: Binding affinity to Atlantic herring DNA assessed as binding constant by fluorescence based EtBr-UV absorption spectral analysis
Bacillus subtilis = assay: Antibacterial activity against Bacillus subtilis ATCC6633 assessed as inhibition of bacterial growth incubated for 24 hrs by two-fold serial dilution assay; type: functional
Staphylococcus aureus [3] = assay: Antibacterial activity against methicillin-resistant Staphylococcus aureus N315 assessed as inhibition of bacterial growth incubated for 24 hrs by two-fold serial dilution assay; type: functional
Micrococcus luteus = assay: Antibacterial activity against Micrococcus luteus assessed as inhibition of bacterial growth incubated for 24 hrs by two-fold serial dilution assay; type: functional
Staphylococcus aureus [4] = assay: Antibacterial activity against Staphylococcus aureus ATCC25923 assessed as inhibition of bacterial growth incubated for 24 hrs by two-fold serial dilution assay; type: functional
Pseudomonas aeruginosa = assay: Antibacterial activity against Pseudomonas aeruginosa assessed as inhibition of bacterial growth incubated for 24 hrs by two-fold serial dilution assay; type: functional
Escherichia coli = assay: Antibacterial activity against Escherichia coli JM109 assessed as inhibition of bacterial growth incubated for 24 hrs by two-fold serial dilution assay; type: functional
Proteus = assay: Antibacterial activity against Proteus ATCC13315 assessed as inhibition of bacterial growth incubated for 24 hrs by two-fold serial dilution assay; type: functional
Salmonella typhi = assay: Antibacterial activity against Salmonella enterica subsp. enterica serovar Typhi assessed as inhibition of bacterial growth incubated for 24 hrs by two-fold serial dilution assay; type: functional
Salmon testes DNA = assay: Binding affinity to salmon Testis DNA assessed as equilibrium binding constant by steady-state fluorescence spectroscopic analysis; conditions: Salmo salar
HeLa = assay: Antiproliferative activity against human HeLa cells assessed as inhibition of cell proliferation incubated for 48 hrs by MTT assay; type: functional, cell-based
SMMC-7721 [5] = assay: Antiproliferative activity against human SMMC-7721 cells assessed as inhibition of cell proliferation incubated for 48 hrs by MTT assay; type: functional, cell-based; conditions: SMMC-7721, 48 h
MCF7 [6] = assay: Antiproliferative activity against human MCF7 cells assessed as inhibition of cell proliferation incubated for 48 hrs by MTT assay; type: functional, cell-based; conditions: MCF7, 48 h
Calf thymus DNA = assay: Binding affinity to calf thymus DNA assessed as binding constant by fluorescence based EtBr-displacement based UV-Vis spectroscopic analysis; type: nucleic-acid assay; conditions: Bos taurus
SMMC-7721 [7] = assay: Cytotoxicity against human SMMC-7721 cells assessed as inhibition of cell growth incubated for 48 hrs by MTT assay; type: functional, cell-based; conditions: SMMC-7721, 48 h
HepG2 = assay: Cytotoxicity against human HepG2 cells assessed as inhibition of cell growth incubated for 48 hrs by MTT assay; type: functional, cell-based; conditions: HepG2, 48 h
K562 = assay: Cytotoxicity against human K562 cells assessed as inhibition of cell growth incubated for 48 hrs by MTT assay; type: functional, cell-based; conditions: K562, 48 h
HCT-116 [8] = assay: Cytotoxicity against human HCT-116 cells assessed as inhibition of cell growth incubated for 48 hrs by MTT assay; type: functional, cell-based; conditions: HCT-116, 48 h

## O=C1c2cccc3cccc(c23)C(=O)N1CCCN(CCCN(CCO)CCO)CCCN1C(=O)c2cccc3cccc(c23)C1=O
HCT-116 [1]
  IC50: 820 nM

## O=C1c2cccc3cccc(c23)C(=O)N1CCCC/N=C/c1ccccn1
Jurkat
  IC50: 5580 nM

## O=C1c2cccc3cccc(c23)C(=O)N1CCCCCC/N=C/c1ccccn1
Jurkat
  IC50: 5580 nM

## CCN(CC)CCN1C(=O)c2cccc3c2c(cc2[nH]c(-c4c[nH]c5ccccc45)nc23)C1=O
L02
  IC50: 8200 nM
MCF7 [2]
  IC50: 8200 nM
BGC-823
  IC50: 8200 nM

## CN(C)CCN1C(=O)c2cccc3c2c(cc2[nH]c(-c4c[nH]c5ccccc45)nc23)C1=O
L02
  IC50: 700 nM
MCF7 [2]
  IC50: 700 nM
BGC-823
  IC50: 700 nM

## O=C1c2cccc3cccc(c23)C(=O)N1CCCNCc1cccs1
HCT-15
  IC50: 2440 nM

## NCCNCCCCN1C(=O)c2cccc3cccc(c23)C1=O
Clupea harengus
  Kb: 1.15 10^4/M

## O=C1c2cccc3c(Sc4nc5ccccc5n4Cc4ccc(F)cc4)ccc(c23)C(=O)N1CCCCn1cncn1
Bacillus subtilis
  MIC: > 512 µg/mL
Staphylococcus aureus [3]
  MIC: > 512 µg/mL
Micrococcus luteus
  MIC: > 512 µg/mL
Staphylococcus aureus [4]
  MIC: > 512 µg/mL
Pseudomonas aeruginosa
  MIC: > 512 µg/mL
Escherichia coli
  MIC: > 512 µg/mL
Proteus
  MIC: > 512 µg/mL
Salmonella typhi
  MIC: > 512 µg/mL

## Nc1ccc2c3c(cccc13)C(=O)N(CC[n+]1ccccc1)C2=O
Salmon testes DNA
  Kb: 1.38 10^5/M

## CN(C)CCCN1C(=O)c2cccc3c2c(cc2[nH]c(-c4c[nH]c5ccccc45)nc23)C1=O
L02
  IC50: 700 nM
MCF7 [2]
  IC50: 700 nM
BGC-823
  IC50: 700 nM

## CN(C)CCN1C(=O)c2cccc3cc(-n4cc(-c5ccccc5)nn4)cc(c23)C1=O
HeLa
  IC50: 300 nM
SMMC-7721 [5]
  IC50: 300 nM
MCF7 [6]
  IC50: 300 nM

## NCCCNCCCCN1C(=O)c2cccc3cccc(c23)C1=O
Clupea harengus
  Kb: 1.15 10^4/M

## O=C1c2cccc3c(Sc4nc5ccccc5n4Cc4ccc(F)cc4F)ccc(c23)C(=O)N1CCCCn1cncn1
Bacillus subtilis
  MIC: > 512 µg/mL
Staphylococcus aureus [3]
  MIC: > 512 µg/mL
Micrococcus luteus
  MIC: > 512 µg/mL
Staphylococcus aureus [4]
  MIC: > 512 µg/mL
Pseudomonas aeruginosa
  MIC: > 512 µg/mL
Escherichia coli
  MIC: > 512 µg/mL
Proteus
  MIC: > 512 µg/mL
Salmonella typhi
  MIC: > 512 µg/mL

## NCCNCCCN1C(=O)c2cccc3cccc(c23)C1=O
Clupea harengus
  Kb: 1.15 10^4/M

## Nc1ccc2c3c(cccc13)C(=O)N(c1cccc(-c3cc[n+]4c(c3)-c3cccc[n+]3CC4)c1)C2=O
Calf thymus DNA
  K: 2.3 10^6/M

## COC(=O)c1ccc2c3c(cccc13)C(=O)N(CCN(C)C)C2=O
SMMC-7721 [7]
  IC50: 13700 nM
HepG2
  IC50: 13700 nM
K562
  IC50: 13700 nM
HCT-116 [8]
  IC50: 13700 nM

## O=C1c2cccc3cc(-n4cc(-c5ccccc5)nn4)cc(c23)C(=O)N1CCO
HeLa
  IC50: 300 nM
SMMC-7721 [5]
  IC50: 300 nM
MCF7 [6]
  IC50: 300 nM

## Cc1ccc(-c2cc[n+]3c(c2)-c2cccc[n+]2CC3)cc1
Calf thymus DNA
  K: 2.8 10^6/M

## CCNN1C(=O)c2cccc3c2c(cc2[nH]c(-c4c[nH]c5ccccc45)nc23)C1=O
L02
  IC50: 700 nM
MCF7 [2]
  IC50: 700 nM
BGC-823
  IC50: 700 nM

## O=C1c2cccc3cccc(c23)C(=O)N1CC[n+]1ccccc1
Salmon testes DNA
  Kb: 2 10^4/M

## O=C1c2cccc3cccc(c23)C(=O)N1CCCNCc1ccco1
HCT-15
  IC50: 2440 nM

## NCCNCCCCCN1C(=O)c2cccc3cccc(c23)C1=O
Clupea harengus
  Kb: 1.15 10^4/M

## O=C1c2cccc3c2c(cc2[nH]c(-c4c[nH]c5ccccc45)nc23)C(=O)N1CCCO
L02
  IC50: 700 nM
MCF7 [2]
  IC50: 700 nM
BGC-823
  IC50: 700 nM

## O=C1c2cccc3c2c(cc2[nH]c(-c4c[nH]c5ccccc45)nc23)C(=O)N1Nc1ccccc1
L02
  IC50: 700 nM
MCF7 [2]
  IC50: 700 nM
BGC-823
  IC50: 700 nM

## CCCCN1C(=O)c2cccc3cc(-n4ccnn4)cc(c23)C1=O
HeLa
  IC50: 300 nM
SMMC-7721 [5]
  IC50: 300 nM
MCF7 [6]
  IC50: 300 nM

## CCOC(=O)c1ccc2c3c(cccc13)C(=O)N(CCN(C)C)C2=O
SMMC-7721 [7]
  IC50: 13700 nM
HepG2
  IC50: 13700 nM
K562
  IC50: 13700 nM
HCT-116 [8]
  IC50: 13700 nM

## O=C1c2cccc3c(Sc4nc5ccccc5n4Cc4ccccc4Cl)ccc(c23)C(=O)N1CCCCn1cncn1
Bacillus subtilis
  MIC: > 512 µg/mL
Staphylococcus aureus [3]
  MIC: > 512 µg/mL
Micrococcus luteus
  MIC: > 512 µg/mL
Staphylococcus aureus [4]
  MIC: > 512 µg/mL
Pseudomonas aeruginosa
  MIC: > 512 µg/mL
Escherichia coli
  MIC: > 512 µg/mL
Proteus
  MIC: > 512 µg/mL
Salmonella typhi
  MIC: > 512 µg/mL

## O=C1c2cccc3c(Sc4nc5ccccc5n4Cc4ccc(Cl)cc4)ccc(c23)C(=O)N1CCCCn1cncn1
Bacillus subtilis
  MIC: > 512 µg/mL
Staphylococcus aureus [3]
  MIC: > 512 µg/mL
Micrococcus luteus
  MIC: > 512 µg/mL
Staphylococcus aureus [4]
  MIC: > 512 µg/mL
Pseudomonas aeruginosa
  MIC: > 512 µg/mL
Escherichia coli
  MIC: > 512 µg/mL
Proteus
  MIC: > 512 µg/mL
Salmonella typhi
  MIC: > 512 µg/mL
